Measured values published in US5814627A, “3, 5-disubstituted and 3, 4, 5-trisubstituted 2-isoxazolines and isoxazoles, process for their preparation and their use as pharmaceuticals” (Hoechst Aktienegesellschaft, priority 1994, dated 1998).
pIC50: −log10 of the molar value. Structures can show the parent of a compound that is named as a salt. Values belong to the compound of their own block, whether it stands above or below them.

Assays:
[1] = test system: polymorphonuclear leucocytes (PMNL); assay: Test 1: Release of proteolytic activity from human PMNL; assay type: cell-based; conditions: for Test 1 residual activity (release of proteolytic activity), percent of control: hydrochloride; for activity at 10 µM / activity at 100 µM / activity at 1 µM: Homo sapiens, PMNL, read-out: Test 1 residual activity (release of proteolytic activity), percent of control
Experimental: Isolation of polymorphonuclear leucocytes (PMNL) from human peripheral blood for carrying out tests 1 and 2 10 ml of human blood were diluted with 10 ml of HBSS (Serva) and underlaid with 15 ml of Lymphoprep (Dr. Molter GmbH, Heidelberg). […] A white ring, composed of mononuclear cells, is located between these two phases. The lowermost phase is composed of erythrocytes which are covered with a white layer of PMNL. The uppermost phase, and also the Lymphoprep and the white ring, were carefully removed using a syringe. The remaining sediment was carefully resuspended in 15 ml of 3% dextran in PM16 (mw: 485,000, Sigma, Deisenhofen). The suspension was then left to stand at room temperature for one hour. During this time, the erythrocytes sedimented while the PMNL remained in the supernatant. The supernatant was removed, diluted with an approximately equal volume of PM16, and centrifuged for 15 minutes at 400×g. Should the PMNL sediment be heavily contaminated with erythrocytes, it is necessary to carry out a hypotonic lysis. To do this, the sediment was resuspended in 750 μl of water. After exactly 15 seconds, the suspension was diluted with approximately 7 ml of PM16 and centrifuged for 10 minutes at 400×g. If necessary, this lysis was repeated once more. Otherwise, the PMNL sediment was resuspended in a suitable medium. 250 μl of PMNL (5·10^6 cells/ml of PBS containing 7.5 mM glucose) were incubated at 37° C. for 20 minutes with 1 μl of test substance. 1 μl of cytochalasin B (5 μg/ml of test mixture) was then added and the mixture was incubated at 37° C. for a further 5 minutes. Following the addition of 1 μl of […] necrosis factor alpha (TNF; 30 ng/ml of test mixture), the incubation was continued for 5 minutes. The release was started using 1 μl of fMLP (10 nmol/l of test mixture). After 60 minutes at 37° C., the reaction was terminated by cooling the samples down to 0° C. The samples were then centrifuged, and the supernatant was removed and frozen down. Cytochalasin B and fMLP were dissolved in DMSO and TNF was diluted with buffer. 50 μl of the supernatant were mixed with 175 μl of buffer (100 mM HEPES, pH 7.5; 500 mM NaCl) in a 96-well microtiter plate. Following the addition of 25 μl of substrate (methoxysuccinyl-[…]-nitroanilide), the extinction of each well was measured at 405 nm after 0, 5, 10, 15, 30 and 60 minutes. […] The interleukin is additionally indicated in test 4.

[2] = test system: cyclooxygenase-dependent thrombocyte aggregation; assay: Test 5: Cyclooxygenase-dependent thrombocyte aggregation; assay type: cell-based, human; conditions: arachidonic acid as inducer; for Test 5 residual activity (cyclooxygenase-dependent thrombocyte aggregation), percent of control / activity at 25 µM: 25 μM; for Test 5 residual activity (cyclooxygenase-dependent thrombocyte aggregation), percent of control: hydrochloride; for activity at 25 µM / activity at 100 µM: Homo sapiens, read-out: Test 5 residual activity (cyclooxygenase-dependent thrombocyte aggregation), percent of control
Experimental: TEST 5. Cyclooxygenase-dependent thrombocyte aggregation
Platelet-rich plasma (PRP): to inhibit coagulation, human blood was treated with 1/10 of its volume of 3.8% sodium citrate solution. Centrifugation then takes place at 105×g for 20 minutes and the supernatant (PRP) is removed. 200 μl of PRP were preincubated, at 37° C. for 10 minutes, together with 30 μl of test substance in a PAP4 aggregometer (BioData). The test substance was dissolved in organic solvent and diluted 1:30 with buffer (50 mM TisHCl, pH 8.0; 90 mM NaCl). Aggregation is triggered with 20 μl of inducer. During the aggregation, stirring takes place at 800 rpm. Arachidonic acid, 5 mg/ml, was used as the inducer.
(§1) The values in the table show the concentration of the test substance which was employed in μM and, besides this, the residual activity measured in percent based on the control, which was set to be 100%. The interleukin is additionally indicated in test 4.

[3] = test system: adjuvant/arthritis model; assay: Test 6: antiarthritic effect in the adjuvant/arthritis model; assay type: in vivo, rat (Wistar-Lewis); conditions: daily for 17 days, rat; for Test 6 Paw volume (% inhibition) / inhibition in vivo at 25 mg/kg: 25 mg/kg orally; for Test 6 Paw volume (% inhibition): hydrochloride; for inhibition in vivo at 50 mg/kg / inhibition in vivo at 25 mg/kg / inhibition in vivo at 20 mg/kg: Rattus norvegicus, po, 408 h, read-out: Test 6 Paw volume (% inhibition); for inhibition in vivo at 50 mg/kg: 50 mg/kg orally; for inhibition in vivo at 20 mg/kg: 20 mg/kg orally
[4] = test system: tumor cell line 20-10-5S (hybridoma cell line); assay: Test 8: Inhibition of tumor cell proliferation; assay type: cell-based; conditions: 48 h + 16 h tritiated thymidine incorporation; 20-10-5S cells
[5] = test system: leukotriene B4 synthesis in white blood cells; assay: Test 3: LTB4 formation by white blood cells; assay type: cell-based; conditions: Homo sapiens; 10 μM; read-out: Test 3 residual activity (LTB4 formation), percent of control
Experimental: TEST 3. LTB4 formation by white blood cells
Isolation of white blood cells:
40 ml of human blood were mixed with 8 ml of 6% dextran solution (dextran, mw: 480,000 in PM16). After one hour at room temperature, the supernatant,which was composed of white blood cells, was removed, diluted with an equal volume of PM16, and centrifuged for 15 minutes at 300×g (1600 rpm). The sediment was next resuspended in approximately 5-6 ml of PM16 and, once the cell count had been determined in a Coulter Counter, adjusted to 10^7 cells/ml.
The test mixture comprised 0.24 ml of cell suspension, 0.03 ml of 20 mM CaCl2 /5 mM MgCl2 and 5 μl of test substance. Following 15 minutes of preincubation at 37° C., the reaction was started with 0.03 ml of A23187/glutathione (100 μg of A23187/ml; 15.4 μg of glutathione/ml). The incubation was terminated after 5 minutes at 37° C. by immediate cooling of the samples down to 0° C. After centrifuging for 2 minutes in an Eppendorff Centrifuge (0° C.), the supernatant was removed and examined chromatographically.
High pressure liquid chromatography (HPLC): the HPLC equipment comprises a Kratos pump (Spectro-flow 400), a cooled automatic BT 7041 sample injector (Biotronik) having a 75 μl sample loop, a Nucleosil C18 column (100*3 mm, 5 μm particles of Chrompack), a UV detector (Kratos) Spectroflow 757 (wavelength: 280 nm, measurement range: 0.1 AUFS, time constant: 0.5 s) and a Spectra Physics integrator (SP 4270). The eluent (725 ml of methanol, 275 ml of water and 0.1 ml of acetic acid) was supplied at a flow rate of 0.7 ml/minute and at a pressure of about 100 bar.
When doing this, the measurement range which has been set can be examined and altered if necessary. It is also vital to measure the test substances at the particular test concentration (e.g.: 10^-5 M) in PM16 before the cell incubation, since the test substances might conceal the LTB4 peak. If this is the case, a lower concentration must be selected.
as §1

SMILES: C[C@@H](OC(=O)CN)[C@@H]1CC(c2cc(C(C)(C)C)c(O)c(C(C)(C)C)c2)=NO1 (relative stereo) [Example 77, Glycine-1-(3-(4-hydroxy-3,5-di-tert-butylphenyl)-2-isoxazoline-5-yl)ethyl ester hydrochloride]
activity at 10 µM ([1]; 10 μM): 74%
activity at 100 µM [1]: 30%
activity at 25 µM [2]: 100%
inhibition in vivo at 50 mg/kg [3]: 82%
pIC50 [4]: 4.70

SMILES: CC(OC(=O)CN)c1cc(-c2cc(C(C)(C)C)c(O)c(C(C)(C)C)c2)no1 (stereo not drawn) [Example 76, Glycine-1-(3-(4-hydroxy-3,5-di-tert-butylphenyl)isoxazol-5-yl)ethyl ester hydrochloride]
activity at 10 µM ([1]; 10 μM): 68%
activity at 100 µM [1]: 9%
activity at 25 µM [2]: 99%
inhibition in vivo at 50 mg/kg [3]: 70%
pIC50 [4]: 4.70

SMILES: CC(C)(C)c1cc(C2=NO[C@H]([C@H](O)CO)C2)cc(C(C)(C)C)c1O (relative stereo) [Example 89, 3-(3,5-Di-tert-butyl-4-hydroxyphenyl)-5-(1,2-dihydroxyethyl)-2-isoxazoline,rac. erythro isomer]
inhibition in vivo at 50 mg/kg [3]: 36%
pIC50 [4]: 4.70

SMILES: CCCCCCCCCCCCCCCC(=O)O[C@H](C)[C@@H]1CC(c2cc(C(C)(C)C)c(O)c(C(C)(C)C)c2)=NO1 (relative stereo) [Example 81, 1-(3-(4-Hydroxy-3,5-di-tert-butylphenyl)-2-isoxazolin-5-yl)ethyl hexadecanoate (erythro isomer)]
activity at 100 µM [2]: 100%
inhibition in vivo at 50 mg/kg [3]: 67%

SMILES: CC(OC(=O)[C@@H](N)Cc1ccccc1)C1CC(c2cc(C(C)(C)C)c(O)c(C(C)(C)C)c2)=NO1 (single isomer, unassigned) [Example 74, L-Phenylalanine-1-(3-(4-hydroxy-3,5-di-tert-butylphenyl)isoxazolin-5-yl)ethyl ester hydrochloride]
activity at 10 µM ([1]; 10 μM): 64%
activity at 25 µM [2]: 95%
inhibition in vivo at 25 mg/kg [3]: 60%
pIC50 [4]: 5.00 to 5.30

SMILES: CC(C)(C)c1cc(C2=NO[C@H]([C@@H](O)CO)C2)cc(C(C)(C)C)c1O (relative stereo) [Example 90, 3-(3,5-Di-tert-butyl-4-hydroxyphenyl)-5-(1,2-dihydroxyethyl)-2-isoxazoline,rac. threo isomer]
inhibition in vivo at 50 mg/kg [3]: 36%
pIC50 [4]: 4.52

SMILES: CC(C)(C)c1cc(C2=NOC3(CC3)C2)cc(C(C)(C)C)c1O [Example 12]
inhibition in vivo at 50 mg/kg [3]: 82%
pIC50 [4]: 5.00

SMILES: CC(C)(C)c1cc(C2CC(c3ccncc3)=NO2)cc(C(C)(C)C)c1O (stereo not drawn) [Example 60, 3-(4-Pyridyl)-5-(4-hydroxy-3,5-di-tert-butylphenyl)-2-isoxazoline]
activity at 10 µM [5]: 88%

Continued, in another order:

pIC50 [4]: 5.00 to 5.30
SMILES: CC(OC(=O)[C@@H](N)Cc1ccccc1)c1cc(-c2cc(C(C)(C)C)c(O)c(C(C)(C)C)c2)no1.Cl (single isomer, unassigned) [Example 72, L-Phenylalanine-1-(3-(4-hydroxy-3,5-di-tert-butylphenyl)isoxazol-5-yl)ethylester hydrochloride]
Test 1 residual activity (release of proteolytic activity), percent of control ([1]; 1 μM): 82%
Test 1 residual activity (release of proteolytic activity), percent of control ([1]; 10 μM): 51%
Test 5 residual activity (cyclooxygenase-dependent thrombocyte aggregation), percent of control [2]: 100%
Test 6 Paw volume (% inhibition) [3]: 60%

pIC50 [4]: 5.00 to 5.30
SMILES: CC(OC(=O)[C@@H](N)Cc1ccccc1)C1CC(c2cc(C(C)(C)C)c(O)c(C(C)(C)C)c2)=NO1 (single isomer, unassigned) [Example 75, L-Phenylalanine-1-(3-(4-hydroxy-3,5-di-tert-butylphenyl)isoxazolin-5-yl)ethyl ester hydrochloride]
Test 1 residual activity (release of proteolytic activity), percent of control ([1]; 10 μM): 49%
activity at 1 µM ([1]; 1 μM): 89%
Test 5 residual activity (cyclooxygenase-dependent thrombocyte aggregation), percent of control [2]: 98%
Test 6 Paw volume (% inhibition) [3]: 76%

pIC50 [4]: 5.00 to 5.30
SMILES: CC(OC(=O)[C@@H](N)Cc1ccccc1)c1cc(-c2cc(C(C)(C)C)c(O)c(C(C)(C)C)c2)no1 (single isomer, unassigned) [Example 71, L-Phenylalanine-1-(3-(4-hydroxy-3,5-di-tert-butylphenyl)isoxazol-5-yl)ethylester hydrochloride]
activity at 1 µM ([1]; 1 μM): 79%
activity at 10 µM ([1]; 10 μM): 42%
activity at 25 µM [2]: 97%
inhibition in vivo at 25 mg/kg [3]: 66%

pIC50 [4]: > 5.30
SMILES: CC(C)(C)c1cc(-c2cc(CCCCO)on2)cc(C(C)(C)C)c1O [Example 27]
activity at 100 µM [2]: 97%
inhibition in vivo at 50 mg/kg [3]: 71%

pIC50 [4]: > 5.30
SMILES: C[C@H](OC(=O)c1ccc(CN2CCOCC2)cc1)[C@@H]1CC(c2cc(C(C)(C)C)c(O)c(C(C)(C)C)c2)=NO1 (relative stereo) [Example 87, 1-(3-(4-Hydroxy-3,5-di-tert-butylphenyl)-2-isoxazolin-5-yl)ethyl 4-(4-morpholino)methylbenzoate hydrochloride]
inhibition in vivo at 20 mg/kg [3]: 50%

pIC50 [4]: > 5.30
SMILES: C[C@@H](OC(=O)c1ccc(CN2CCOCC2)cc1)[C@@H]1CC(c2cc(C(C)(C)C)c(O)c(C(C)(C)C)c2)=NO1 (relative stereo) [Example 86, 1-(3-(4-Hydroxy-3,5-di-tert-butylphenyl)-2-isoxazolin-5-yl)ethyl 4-(4-morpholino)methylbenzoate hydrochloride]
inhibition in vivo at 20 mg/kg [3]: 70%
